Measurements from patent publication US20090209548A1, “FORMULATION FOR STIMULATING HAIR GROWTH” (Pfizer Inc, priority 2004, published 2009).

Columns and labels:
[1] = In-vitro human cadaver skin permeation, Franz diffusion cell; assay type: in vitro ADME; conditions: for Mean Percentage of Radioactivity Recovered at 24 Hours, Dermis / Mean Percentage of Radioactivity Recovered at 24 Hours, Epidermis / Mean Percentage of Radioactivity Recovered at 24 Hours, Receptor / Mean Percentage of Radioactivity Recovered at 24 Hours, Surface / Mean Percentage of Radioactivity Recovered at 24 Hours, Total: Compound 0.96% w/v
Procedure: Experimentally, the flux can be determined by measuring the amount of drug permeation into the receptor compartment of a Franz cell over time. The cumulative drug permeated per cm^2 is than plotted against time and the steady state permeation rate (flux, J) is calculated from the slope of the linear portion of the curve according to Fick's 1st law of diffusion.
In Examples 2-5 infra, the cumulative amount of Compound permeated through the skin as amount per surface area (μg/cm^2) was plotted against time (hours). Flux (μg/cm^2/hr) was determined by calculating the slope of the linear portion of the permeation profile. Drawing III depicts such a calculation. Typical variance in measured flux of 10 replicate samples is about 30-50%. However, if the formulation provides low flux of the Compound, indicating poor permeation through the skin, the variance could be much higher than the typical 30-50%.
This methodology utilizes a device known as the Franz Diffusion Cell. A typical device is depicted in Drawing II. The test is carried out using the following general methodology. A sample of human cadaver skin is inserted in to the area labeled as skin. The skin should be oriented so that the stratum corneum is facing the Donor Compartment and the dermis is facing the Receptor Compartment. The Receptor Compartment will be filled with a predefined solution (based on solubility of test agent). A dose of test agent, in a defined volume, is inserted into the Donor Compartment so that it may come in contact with the skin sample and potentially diffuse thru the skin into the Receptor Compartment. Samples of solution are then withdrawn from Receptor Compartment at defined time points and the concentration of test agent is determined. The amount of test agent permeated per cm^2 of skin is plotted versus time and the flux of the test agent is calculated as described above. The reader's attention is directed to Example 2, which provides a more detailed discussion of this test.
As with any testing method, the results can vary depending upon how the test is carried out. […] Thus, as used in this application including the claims, any flux determination should be carried by controlling the following parameters: • 1) Apparatus—The apparatus should be a Franz Diffusion Cell. Each cell should have a cell volume of 5.4 to 5.5 ml. Ten (10) cells should be utilized per formulation (i.e. both the test formulation and the reference formulation). As is standard in the field, the results are reported as the mean. • 2) Skin—Skin samples used for both the test formulation and the reference formulation should be human cadaver skin obtained from a single donor, who is […], between the ages of 50 and 75 and is obtained from the subjects back. […] The surface area of the skin samples should be 0.635 cm^2 (internal diameter of opening of 9 mm). The donor compartment should be maintained at room temperature (see Table A for specifics). • 3) Testing—Testing should be carried out for 24 hours. Sample should be withdrawn at the initiation of testing, and 2, 4, 12, 16, and 24 hours after initiation of testing. The sample volume should be 0.5 ml. The Compound should be present at identical concentrations in both the test formulation and the reference formulation (w/v for liquids and w/w for semi-solids). This concentration should be equal to that used in the final dosage form (i.e., what is being developed for eventual human application). A dose volume of 10 μl/0.635 cm^2 should be used. • 4) Receptor Solution—0.1% (w/v) Brij-98 in Dulbecco's phosphate buffered saline, pit 6.9 (KH2PO4 14.7 mM and Na2HPO4 80.9 mM). • 5) Barrier Integrity—The barrier integrity of human cadaver donor skin is assessed to ensure that changes in flux are attributed to the formulation versus a faulty skin barrier (e.g., cut, scrape, lesion, etc). […] The receptor fluid is assayed for these compounds. […]

[2] = system: hair growth cycle; conditions: animal studies; topical; co-pending application 60/544,116; cited from earlier work
[3] = Table 2, vehicle 63.5:20:8:7.5% w/w EtOH/PG/CPE-215/Water
[4] = Table 2, vehicle 70:30% w/w EtOH/PG
[5] = Table 3, vehicle 60:20:20% w/w EtOH/PG/IPM
[6] = Table 3, vehicle 63.5:20:8:7.5% w/w EtOH/PG/CPE-215/Water
[7] = Table 4, vehicle 60:20:20% w/w EtOH/PG/IPM, skin 1.03-1.19 mm
[8] = Table 4, vehicle 70:20:10% w/w EtOH/PG/IPM, skin 1.03-1.19 mm

Flux ([1]; Example 3, Compound 0.96% w/v in ethanol:propylene glycol:Cyclopentadecanolide:Water (63.5:20:8:7.5% w/w/w/w), skin 0.71-0.96 mm and 0.90-1.04 mm): 0.053±0.003 μg/cm^2/hr
Flux ([1]; Example 3, Compound 0.96% w/v in reference formulation (70% ethanol:30% propylene glycol w/w), skin 0.71-0.96 mm and 0.90-1.04 mm): 0.004±0.006 μg/cm^2/hr
Flux ([1]; Example 4, carrier ethanol:propylene glycol:Cyclopentadecanolide:Water (63.5:20:8:7.5% w/w/w/w), skin 0.71-0.96 mm and 0.90-1.04 mm): 0.022±0.007 μg/cm^2/hr
Flux ([1]; Example 4, carrier ethanol:propylene glycol:IPM (60:20:20% w/w/w), skin 0.71-0.96 mm and 0.90-1.04 mm): 0.017±0.008 μg/cm^2/hr
Flux ([1]; Example 5, carrier ethanol:propylene glycol:IPM (60:20:20% w/w/w), skin 1.03-1.19 mm): 0.011±0.003 μg/cm^2/hr
Flux ([1]; Example 5, carrier ethanol:propylene glycol:IPM (70:20:10% w/w/w), skin 1.03-1.19 mm): 0.007±0.003 μg/cm^2/hr
Flux ([1]; Example 6, Compound 1.86% w/v, carrier EtOH/PG/DMI (dimethyl isosorbide) (60:30:10% w/w)): 0.036±0.0336 μg/cm^2/hr
Flux ([1]; Example 6, Compound 1.86% w/v, carrier EtOH/PG/Miglyol 840 (50:30:20% w/w/w)): 0.11±0.007 μg/cm^2/hr
Flux ([1]; Example 6, Compound 1.86% w/v, carrier ethanol:propylene glycol:IPM (50:30:20% w/w/w)): 191±0.026 μg/cm^2/hr
Skin permeation as compared with the reference formulation ([1]; FIG. 4, carrier comprising a penetration enhancer (Cyclopentadecanolide) vs reference formulation): greatly enhanced
Mean Percentage of Radioactivity Recovered at 24 Hours, Dermis [1, 3]: 0.61%
Mean Percentage of Radioactivity Recovered at 24 Hours, Epidermis [1, 3]: 8.50%
Mean Percentage of Radioactivity Recovered at 24 Hours, Receptor [1, 3]: 0.56%
Mean Percentage of Radioactivity Recovered at 24 Hours, Surface [1, 3]: 84.77%
Mean Percentage of Radioactivity Recovered at 24 Hours, Total [1, 3]: 94.43%
Mean Percentage of Radioactivity Recovered at 24 Hours, Dermis [1, 4]: 0.06%
Mean Percentage of Radioactivity Recovered at 24 Hours, Epidermis [1, 4]: 2.53%
Mean Percentage of Radioactivity Recovered at 24 Hours, Receptor [1, 4]: 0.05%
Mean Percentage of Radioactivity Recovered at 24 Hours, Surface [1, 4]: 79.30%
Mean Percentage of Radioactivity Recovered at 24 Hours, Total [1, 4]: 81.94%
Mean Percentage of Radioactivity Recovered at 24 Hours, Dermis [1, 5]: 0.78%
Mean Percentage of Radioactivity Recovered at 24 Hours, Epidermis [1, 5]: 8.04%
Mean Percentage of Radioactivity Recovered at 24 Hours, Receptor [1, 5]: 0.14%
Mean Percentage of Radioactivity Recovered at 24 Hours, Surface [1, 5]: 79.28%
Mean Percentage of Radioactivity Recovered at 24 Hours, Total [1, 5]: 88.24%
Mean Percentage of Radioactivity Recovered at 24 Hours, Dermis [1, 6]: 0.76%
Mean Percentage of Radioactivity Recovered at 24 Hours, Epidermis [1, 6]: 8.71%
Mean Percentage of Radioactivity Recovered at 24 Hours, Receptor [1, 6]: 0.16%
Mean Percentage of Radioactivity Recovered at 24 Hours, Surface [1, 6]: 79.36%
Mean Percentage of Radioactivity Recovered at 24 Hours, Total [1, 6]: 88.99%
Mean Percentage of Radioactivity Recovered at 24 Hours, Dermis [1, 7]: 1.00%
Mean Percentage of Radioactivity Recovered at 24 Hours, Epidermis [1, 7]: 12.00%
Mean Percentage of Radioactivity Recovered at 24 Hours, Receptor [1, 7]: 0.07%
Mean Percentage of Radioactivity Recovered at 24 Hours, Surface [1, 7]: 73.00%
Mean Percentage of Radioactivity Recovered at 24 Hours, Total [1, 7]: 86.1%
Mean Percentage of Radioactivity Recovered at 24 Hours, Dermis [1, 8]: 1.04%
Mean Percentage of Radioactivity Recovered at 24 Hours, Epidermis [1, 8]: 12.27%
Mean Percentage of Radioactivity Recovered at 24 Hours, Receptor [1, 8]: 0.10%
Mean Percentage of Radioactivity Recovered at 24 Hours, Surface [1, 8]: 75.24%
Mean Percentage of Radioactivity Recovered at 24 Hours, Total [1, 8]: 88.66%
SMILES: Cn1nc(O[C@@H]2c3cc(S(=O)(=O)c4cccc(O)c4)ccc3OC(C)(C)[C@@]2(C)O)ccc1=O [Compound, 6-[[(3S,4R)-3,4-dihydro-3-hydroxy-6-[(3-hydroxyphenyl)sulfonyl]-2,2,3-trimethyl-2H-1-benzopyran-4-yl]oxy]-2-methyl-3(2H)-pyridazinone]
Effect on the hair growth cycle [2]: alters the hair growth cycle by inducing anagen
